The values that follow come from patent US8461178B2, “Naphthyridine derivatives and the use thereof as kinase inhibitors” (Aeterna Zentaris GmbH, priority 2009, dated 2013).

In series [1] the target is T1, Aurora-B (Homo sapiens, UniProt Q96GD4).
T1 construct: in some cases as full-length kinases, in some cases as truncated fragments; purchased Upstate/Millipore #14-835
The series is described as follows: Cell-free kinase assay (ALPHA technology), Aurora-B. Format: biochemical. On the procedure: The kinase reaction was stopped by adding 10 μl of the ALPHA bead mix (10 μg/ml, #6760617/PerkinElmer), pre-incubated with anti-phospho PLK antibody (100 pM, #5070, Cell Signaling), in 25 mM Tris, 200 mM NaCl, 100 mM EDTA and 0.3% BSA, and left to stand overnight. The luminiscence was detected the next morning in a Envision instrument (Perkin Elmer). […] 0% controls contained no ATP whereas the 100% controls contained no test substance. The IC50 values were determined with GraphPadPrism.

The target of series [2] is T2, Erk2 (Homo sapiens, UniProt P28482).
T2 construct: in some cases as full-length kinases, in some cases as truncated fragments
T2 sequence (P28482 whole entry, the tested form may be a part): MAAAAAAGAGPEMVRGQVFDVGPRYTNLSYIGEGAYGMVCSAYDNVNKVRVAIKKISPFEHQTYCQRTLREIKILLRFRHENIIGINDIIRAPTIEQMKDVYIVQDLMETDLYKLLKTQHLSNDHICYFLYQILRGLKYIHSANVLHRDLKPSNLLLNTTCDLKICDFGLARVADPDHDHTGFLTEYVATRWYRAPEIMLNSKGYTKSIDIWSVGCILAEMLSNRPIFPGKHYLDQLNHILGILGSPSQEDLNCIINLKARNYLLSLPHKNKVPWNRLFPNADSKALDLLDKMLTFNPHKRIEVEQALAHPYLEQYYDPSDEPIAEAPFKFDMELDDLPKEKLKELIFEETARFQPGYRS
The series is described as follows: Cell-free kinase assay (ALPHA technology), Erk2. Format: biochemical. Conditions: for dual activity against Aurora-B and Erk2 (or cRaf-Mek-Erk cascade respectively): in words; for IC50: at 10 μM ATP. On the procedure: (§1) The controls were determined 16 fold. 0% controls contained no ATP whereas the 100% controls contained no test substance. The IC50 values were determined with GraphPadPrism.

For series [3], the target named is cRaf-Mek1-Erk2 (Homo sapiens, UniProt P04049+P28482+Q02750). The note with it: read-out: IC50 cRaf-Mek-Erk; at 10 μM ATP. Here is the method:
The inhibitory effect of the inventive compounds was tested on various human serine/threonine kinases and tyrosine kinases in enzymatic assays. Recombinant human kinases, for example Aurora-B, cRaf-Mek1-Erk2, Erk2, Pim-1, HIPK1, KDR, TrkA, Yes, c-Abl and others were used, in some cases as full-length kinases, in some cases as truncated fragments—but at least consisting of the functional kinase domains. The commercial kinase proteins (Proqinase, Millipore) were used as recombinant fusion proteins with GST (glutathione S-transferase) tag or His tag. Depending on the substrate type, the different kinase reactions were quantified by suitable ALPHA™ beads (PerkinElmer).
The calculation of % inhibition values per substance concentration was done by means of the following formula from the raw data determined in the Envision reader:
as §1

[4] abbreviates: at 10 μM ATP, read-out: IC50 Aurora-B.
Where [5] appears, read: read-out: IC50 values against Aurora-B.

SMILES strings stand for the structures. Read-outs that look alike come from different tables or passages of the source. Where only a bound is given, the exact number is not on record here.

cRaf-Mek1-Erk2, sequence (P04049 whole entry, the tested form may be a part): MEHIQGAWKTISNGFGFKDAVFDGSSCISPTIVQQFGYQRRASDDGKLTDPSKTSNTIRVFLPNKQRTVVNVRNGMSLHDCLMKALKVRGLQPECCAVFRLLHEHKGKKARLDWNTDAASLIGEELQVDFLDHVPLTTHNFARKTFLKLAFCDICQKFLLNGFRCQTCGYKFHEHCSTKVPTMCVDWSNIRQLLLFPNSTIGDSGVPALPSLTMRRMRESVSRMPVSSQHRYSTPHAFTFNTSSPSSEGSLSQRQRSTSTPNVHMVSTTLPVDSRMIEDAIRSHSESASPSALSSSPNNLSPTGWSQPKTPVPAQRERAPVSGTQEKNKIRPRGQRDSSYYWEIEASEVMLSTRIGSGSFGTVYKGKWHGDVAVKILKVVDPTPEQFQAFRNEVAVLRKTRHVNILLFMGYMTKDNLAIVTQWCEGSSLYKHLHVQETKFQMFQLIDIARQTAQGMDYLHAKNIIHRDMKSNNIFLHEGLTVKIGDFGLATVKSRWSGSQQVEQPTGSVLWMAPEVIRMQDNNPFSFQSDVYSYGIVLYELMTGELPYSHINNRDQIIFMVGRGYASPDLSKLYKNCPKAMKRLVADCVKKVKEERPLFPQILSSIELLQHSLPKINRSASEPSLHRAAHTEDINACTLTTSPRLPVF
cRaf-Mek1-Erk2, sequence (Q02750 whole entry, the tested form may be a part): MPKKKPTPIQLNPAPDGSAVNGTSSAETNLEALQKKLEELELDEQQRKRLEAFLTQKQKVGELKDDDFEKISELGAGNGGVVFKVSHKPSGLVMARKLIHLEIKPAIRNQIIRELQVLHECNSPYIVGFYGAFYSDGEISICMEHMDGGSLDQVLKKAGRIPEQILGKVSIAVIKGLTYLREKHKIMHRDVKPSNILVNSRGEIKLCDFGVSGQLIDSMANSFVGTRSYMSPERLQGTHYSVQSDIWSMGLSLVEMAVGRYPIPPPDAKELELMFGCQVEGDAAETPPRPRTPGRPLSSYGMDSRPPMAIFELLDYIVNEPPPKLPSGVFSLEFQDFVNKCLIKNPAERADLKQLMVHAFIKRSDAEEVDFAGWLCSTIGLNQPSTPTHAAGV
cRaf-Mek1-Erk2, sequence (P28482 2-360): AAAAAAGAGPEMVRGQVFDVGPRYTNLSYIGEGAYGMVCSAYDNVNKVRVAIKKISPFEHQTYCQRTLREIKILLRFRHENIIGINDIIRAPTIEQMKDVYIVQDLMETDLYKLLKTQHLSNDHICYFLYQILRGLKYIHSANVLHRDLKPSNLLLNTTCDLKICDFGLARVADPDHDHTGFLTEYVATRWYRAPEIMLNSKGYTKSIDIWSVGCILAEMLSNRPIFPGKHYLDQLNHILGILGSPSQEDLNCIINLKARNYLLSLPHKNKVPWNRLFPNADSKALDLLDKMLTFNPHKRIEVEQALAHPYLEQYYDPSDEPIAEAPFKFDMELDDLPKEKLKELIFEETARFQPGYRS
T1 sequence (Q96GD4 whole entry, the tested form may be a part): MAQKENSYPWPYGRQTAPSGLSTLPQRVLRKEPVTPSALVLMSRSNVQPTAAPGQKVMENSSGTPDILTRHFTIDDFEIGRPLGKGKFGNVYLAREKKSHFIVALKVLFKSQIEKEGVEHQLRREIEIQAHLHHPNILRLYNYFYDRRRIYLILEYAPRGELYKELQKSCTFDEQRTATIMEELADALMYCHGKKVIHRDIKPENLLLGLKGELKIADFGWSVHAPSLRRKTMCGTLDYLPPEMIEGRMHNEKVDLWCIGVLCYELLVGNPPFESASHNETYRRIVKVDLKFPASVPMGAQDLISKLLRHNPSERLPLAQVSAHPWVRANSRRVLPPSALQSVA

In general, melting point refers to the temperature, or range, at which the solid turns liquid. Broadly, the IC50 is the concentration needed to halve the response being measured. In turn, `CCNC(=O)Nc1ccc2ncc(-c3ccc(OC)cc3)cc2n1` [Compound 1, 1-Ethyl-3-[7-(4-methoxy-phenyl)-[1,5]naphthyridin-2-yl]urea] registered a melting point of 264 to 265 °C. Further, in series [1] (setting [4]), the IC50 was 2230 nM. In addition, the “dual activity against Aurora-B and Erk2 (or cRaf-Mek-Erk cascade respectively)” value (“dual activity against Aurora-B and Erk2” for short) in series [2] is “dual activity”.

In turn, `CCNC(=O)Nc1ccc2ncc(-c3ccc(OC)c(OC)c3)cc2n1` [Compound 2, 1-[7-(3,4-Dimethoxy-phenyl)-[1,5]naphthyridin-2-yl]-3-ethyl-urea] gave a melting point of 218 to 219 °C. The IC50 in series [1] (setting [4]) is 624 nM. Also, the “dual activity against Aurora-B and Erk2” value in series [2] is “dual activity”.

The compound `COc1ccc(-c2cnc3ccc(NC(=O)NC(C)(C)C)nc3c2)cc1OC` [Compound 3, 1-tert-Butyl-3-[7-(3,4-dimethoxy-phenyl)-[1,5]naphthyridin-2-yl]-urea] had a melting point of 279 to 280 °C. In addition, in series [1] (setting [4]), the IC50 amounted to 805 nM. Further, in series [2], the IC50 came out at 1720 nM; the “dual activity against Aurora-B and Erk2” value is listed as “dual activity”. Besides, in series [3], the IC50 is 1120 nM.

`COc1cc(-c2cnc3ccc(NC(=O)NC(C)(C)C)nc3c2)ccc1O` [Compound 4, 1-tert-Butyl-3-[7-(4-hydroxy-3-methoxy-phenyl)-[1,5]naphthyridin-2-yl]-urea]: the melting point was in the range of 286 to 287 °C. In series [1] (setting [4]), the IC50 amounted to 227 nM. Further, the “dual activity against Aurora-B and Erk2” value in series [2] was “dual activity”.

Regarding `Cn1cc(-c2cnc3ccc(NC(=O)NCCc4ccccc4)nc3c2)cn1` [Compound 5, 1-[7-(1-Methyl-1H-pyrazol-4-yl)-[1,5]naphthyridin-2-yl]-3-phenethyl-urea], the melting point was in the range of 237 to 238 °C. The IC50 in series [1] (setting [4]) came to 171 nM. Besides, in series [2], the IC50 was 733 nM; the “dual activity against Aurora-B and Erk2” value was “dual activity”. Further, the IC50 in series [3] was determined as 8 nM.

Regarding `CCNC(=S)Nc1ccc2ncc(Nc3cc(OC)c(OC)c(OC)c3)cc2n1` [Compound 6, 1-Ethyl-3-[7-(3,4,5-trimethoxy-phenylamino)-[1,5]naphthyridin-2-yl]-thiourea], the melting point was in the range of 237 to 238 °C.

`CCNC(=O)Nc1ccnc2cc(-c3ccc(OC)c(OC)c3)cnc12` [Compound 7, 1-[7-(3,4-Dimethoxy-phenyl)-[1,5]naphthyridin-4-yl]-3-ethyl-urea] had a melting point of 215 to 216 °C. For the same compound, the IC50 in series [1] (setting [4]) was 136 nM. Also, the IC50 in series [2] was above 100000 nM. The IC50 in series [3] was around 100000 nM.

In the case of `COc1ccc(-c2cnc3c(NC(=O)NC(C)(C)C)ccnc3c2)cc1OC` [Compound 8, 1-tert-Butyl-3-[7-(3,4-dimethoxy-phenyl)-[1,5]naphthyridin-4-yl]-urea], the melting point was 215 to 216 °C. In addition, the IC50 in series [1] (setting [4]) worked out at 714 nM. The compound also yielded an IC50 in series [2] above 100000 nM. The IC50 in series [3] was around 100000 nM.

In turn, `CCNC(=O)Nc1ccnc2cc(-c3ccc(O)c(OC)c3)cnc12` [Compound 9, 1-Ethyl-3-[7-(4-hydroxy-3-methoxy-phenyl)-[1,5]naphthyridin-4-yl]-urea] returned a melting point of 202 to 203 °C. Moreover, the IC50 in series [1] (setting [4]) came out at 370 nM. For the same compound, the IC50 in series [2] was around 100000 nM. In addition, the IC50 in series [3] is above 31600 nM.

The compound `CCNC(=O)Nc1ccnc2cc(-c3cnn(C)c3)cnc12` [Compound 10, 1-Ethyl-3-[7-(1-methyl-1H-pyrazol-4-yl)-[1,5]naphthyridin-4-yl]-urea] yielded a melting point of 215 to 216 °C. Also, the IC50 in series [1] (setting [4]) was 38 nM. The IC50 in series [1] (setting [5]) is below 100 nM. The compound also yielded an IC50 in series [2] above 100000 nM. Also, in series [3], the IC50 is above 31600 nM.

`Cn1cc(-c2cnc3c(NC(=O)NC(C)(C)C)ccnc3c2)cn1` [Compound 11, 1-tert-Butyl-3-[7-(1-methyl-1H-pyrazol-4-yl)-[1,5]naphthyridin-4-yl]-urea]: the melting point fell in the range of 215 to 216 °C. Besides, the 50% inhibitory concentration (IC50) in series [1] (setting [4]) turned out to be 112 nM. The compound also yielded an IC50 in series [2] above 31600 nM. For the same compound, in series [3], the IC50 stood at 12600 nM.

For `COc1cc(-c2cnc3c(NC(=O)NC(C)(C)C)ccnc3c2)ccc1O` [Compound 12, 1-tert-Butyl-3-[7-(4-hydroxy-3-methoxy-phenyl)-[1,5]naphthyridin-4-yl]-urea], the melting point lay in the range of 158 to 159 °C. In series [1] (setting [4]), the IC50 is 1580 nM. In series [2], this compound came in with an IC50 above 100000 nM. Further, the IC50 in series [3] is above 31600 nM.

For `CC(C)(C)NC(=O)Nc1ccnc2cc(-c3cc(Cl)c(O)c(Cl)c3)cnc12` [Compound 13, 1-tert-Butyl-3-[7-(3,5-dichloro-4-hydroxy-phenyl)-[1,5]naphthyridin-4-yl]-urea], the melting point is above 300 °C. For the same compound, the IC50 in series [1] (setting [4]) came out at 500 nM. The compound further showed an IC50 in series [2] above 100000 nM. Also, the IC50 in series [3] came to 11000 nM.

`COc1cc(-c2cnc3c(NC(=O)NC4CC4)ccnc3c2)ccc1O` [Compound 14, 1-Cyclopropyl-3-[7-(4-hydroxy-3-methoxy-phenyl)-[1,5]naphthyridin-4-yl]-urea]: the melting point fell in the range of 235 to 236 °C. Moreover, the IC50 in series [1] (setting [4]) came to 108 nM. Besides, the IC50 in series [2] is above 100000 nM. Further, the IC50 in series [3] was 18100 nM.

With `CCNC(=O)Nc1ccnc2cc(-c3cc(Cl)c(O)c(Cl)c3)cnc12` [Compound 15, 1-[7-(3,5-Dichloro-4-hydroxy-phenyl)-[1,5]naphthyridin-4-yl]-3-ethyl-urea], the melting point is above 300 °C. For the same compound, in series [1] (setting [4]), the IC50 came out at 227 nM. The IC50 in series [2] is above 31600 nM. Also, the IC50 in series [3] was 7850 nM.

Compound `CCNC(=O)Nc1ccnc2cc(-c3cc(C)c(O)c(C)c3)cnc12` [Compound 16, 1-Ethyl-3-[7-(4-hydroxy-3,5-dimethyl-phenyl)-[1,5]naphthyridin-4-yl]-urea] returned a melting point of 213 to 214 °C. Moreover, the IC50 in series [1] (setting [4]) came out at 3850 nM. The compound further gave an IC50 in series [2] above 31600 nM. In addition, the IC50 in series [3] was above 31600 nM.

In turn, `Cn1cc(-c2cnc3c(NC(=O)NC4CCC4)ccnc3c2)cn1` [Compound 17, 1-Cyclobutyl-3-[7-(1-methyl-1H-pyrazol-4-yl)-[1,5]naphthyridin-4-yl]-urea] displayed a melting point of 215 to 216 °C. Further, the IC50 in series [1] (setting [4]) is 48 nM. Moreover, the IC50 in series [1] (setting [5]) was below 100 nM. Further, in series [2], the IC50 was above 100000 nM. Besides, the IC50 in series [3] worked out at 2170 nM.

In the case of `Cn1cc(-c2cnc3c(NC(=O)NC4CC4)ccnc3c2)cn1` [Compound 18, 1-Cyclopropyl-3-[7-(1-methyl-1H-pyrazol-4-yl)-[1,5]naphthyridin-4-yl]-urea], the melting point fell in the range of 223 to 224 °C. Also, the IC50 in series [1] (setting [4]) worked out at 13 nM. For the same compound, the IC50 in series [1] (setting [5]) is below 100 nM. In series [2], this compound gave an IC50 above 100000 nM. Also, in series [3], the IC50 was 7450 nM.

In turn, `CCCNC(=O)Nc1ccnc2cc(-c3cnn(C)c3)cnc12` [Compound 19, 1-[7-(1-Methyl-1H-pyrazol-4-yl)-[1,5]naphthyridin-4-yl]-3-propyl-urea] yielded a melting point of 216 to 217 °C. In addition, in series [1] (setting [4]), the IC50 was determined as 26 nM. For the same compound, in series [1] (setting [5]), the IC50 was below 100 nM. In series [2], this compound returned an IC50 above 100000 nM. In addition, the IC50 in series [3] was found to be 9740 nM.

On to `Cn1cc(-c2cnc3ccc(NC(=O)NC(C)(C)C)nc3c2)cn1` [Compound 26, 1-tert-Butyl-3-[7-(1-methyl-1H-pyrazol-4-yl)-[1,5]naphthyridin-2-yl]-urea], for which the results for the IC50 in series [1] (setting [4]), in series [2] and in series [3] were 260 nM, 429 nM and 96 nM, respectively. For the same compound, the “dual activity against Aurora-B and Erk2” value in series [2] was “dual activity”.

As to `Cn1cc(-c2cnc3ccc(NC(=O)Nc4ccccc4)nc3c2)cn1` [Compound 27, 1-[7-(1-Methyl-1H-pyrazol-4-yl)-[1,5]naphthyridin-2-yl]-3-phenyl-urea], the IC50 worked out at 1140 nM in series [1] (setting [4]), 191 nM in series [2] and 157 nM in series [3]. Moreover, the “dual activity against Aurora-B and Erk2” value in series [2] was “dual activity”.

As to `Cn1cc(-c2cnc3ccc(NC(=O)NCc4ccccc4)nc3c2)cn1` [Compound 28, 1-Benzyl-3-[7-(1-methyl-1H-pyrazol-4-yl)-[1,5]naphthyridin-2-yl]-urea], the melting point lay in the range of 257 to 258 °C. In series [1] (setting [4]), the IC50 stood at 579 nM. The “dual activity against Aurora-B and Erk2” value in series [2] is given as “dual activity”.

On to `CC(C)NC(=O)Nc1ccnc2cc(-c3cnn(C)c3)cnc12` [Compound 30, 1-Isopropyl-3-[7-(1-methyl-1H-pyrazol-4-yl)-[1,5]naphthyridin-4-yl]-urea], for which the IC50 was 137 nM in series [1] (setting [4]), above 100000 nM in series [2] and 2170 nM in series [3].
